Measured values from patent US9981972B2, “N-hydroxy bicyclic hydantoin carbamates as tools for identification of serine hydrolase targets” (ABIDE THERAPEUTICS, INC., priority 2014, dated 2018).

What was measured:
Assay in all cases: Gel-based competitive ABPP in vitro, mouse brain membrane proteome
Assay type in all cases: biochemical
LYPLA1 = molecular target: T1, LYPLA1 (Mus musculus, UniProt P97823)
T1 construct: a complex proteome endogenously expressing LYPLA1/2 was incubated with test compound; from tissue; host or cells: mouse brain, membrane fraction
How it was run: (§1)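 Mouse brain membrane proteome (1 mg/mL in DPBS) was treated with compound (0.1-100 μM) for 30 min at 37 °C, then labeled with FP-Rh (2 μM final, 30 min, 25 °C). Bands were resolved by SDS-PAGE and scanned in-gel, with inhibition taken from band optical density versus DMSO. Targets counted as active or anti-targets at ≥50% inhibition.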

LYPLA2 = molecular target: T2, LYPLA2 (Mus musculus, UniProt Q9WTL7)
T2 construct: a complex proteome endogenously expressing LYPLA1/2 was incubated with test compound; from tissue; host or cells: mouse brain, membrane fraction
How it was run: as §1

ABHD3 = molecular target: T3, ABHD3 (Mus musculus, UniProt Q91ZH7); details: mouse brain (mem) proteome
T3 construct: from tissue; host or cells: mouse brain, membrane fraction
T3 sequence (Q91ZH7 1-411): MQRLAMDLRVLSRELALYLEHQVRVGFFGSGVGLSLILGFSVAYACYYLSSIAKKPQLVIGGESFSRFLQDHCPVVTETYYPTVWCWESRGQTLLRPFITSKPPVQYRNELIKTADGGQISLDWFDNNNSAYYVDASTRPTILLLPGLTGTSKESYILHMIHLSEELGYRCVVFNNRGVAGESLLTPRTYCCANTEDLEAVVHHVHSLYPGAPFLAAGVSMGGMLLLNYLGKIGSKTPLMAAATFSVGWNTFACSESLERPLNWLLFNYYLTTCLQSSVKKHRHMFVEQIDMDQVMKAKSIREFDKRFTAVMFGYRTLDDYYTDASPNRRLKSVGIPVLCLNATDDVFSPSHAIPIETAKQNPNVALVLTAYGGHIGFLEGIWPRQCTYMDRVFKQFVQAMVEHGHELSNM
Protocol: (§2) Assay Overview: The purpose of this assay was to determine whether test compounds can inhibit LYPLA1 and LYPLA2 in a complex proteomic lysate and to assess anti-target inhibition using a competitive activity-based proteomic profiling (ABPP) assay. In this assay, a complex proteome endogenously expressing LYPLA1/2 was incubated with test compound followed by reaction with a rhodamine-conjugated fluorophosphonate (FP-Rh) serine-hydrolase specific activity-based probe. The reaction products were separated by SDS-PAGE and visualized in-gel using a flatbed fluorescence scanner. The percentage activity remaining was determined by measuring the integrated optical density of the bands. […] Percent inhibition was calculated relative to a DMSO (no compound) control.
(§3) Protocol Summary: Mouse brain membrane proteome (50 μL reaction volume, 1 mg/mL in DPBS) was treated with 0.1-100 μM test compound (1 μL of a 50× stock in DMSO) for 30 minutes at 37° C. FP-Rh (1 μL of 50× stock in DMSO, Thermo #88318) was added to a final concentration of 2 μM. The reactions were incubated for 30 minutes at 25° C., quenched with 16 μL 4×SDS-PAGE loading buffer (reducing), separated by SDS-PAGE and visualized by in-gel fluorescent scanning. The percentage activity remaining was determined by measuring the integrated optical density of the bands relative to a DMSO-only (no compound) control. Assay Cutoff: Compounds with ≥50% inhibition of targets at 1 μM test compound concentration were considered active.

ABHD12 = molecular target: T4, ABHD12 (Mus musculus, UniProt Q99LR1); details: mouse brain (mem) proteome
T4 construct: from tissue; host or cells: mouse brain, membrane fraction
T4 sequence (Q99LR1 1-398): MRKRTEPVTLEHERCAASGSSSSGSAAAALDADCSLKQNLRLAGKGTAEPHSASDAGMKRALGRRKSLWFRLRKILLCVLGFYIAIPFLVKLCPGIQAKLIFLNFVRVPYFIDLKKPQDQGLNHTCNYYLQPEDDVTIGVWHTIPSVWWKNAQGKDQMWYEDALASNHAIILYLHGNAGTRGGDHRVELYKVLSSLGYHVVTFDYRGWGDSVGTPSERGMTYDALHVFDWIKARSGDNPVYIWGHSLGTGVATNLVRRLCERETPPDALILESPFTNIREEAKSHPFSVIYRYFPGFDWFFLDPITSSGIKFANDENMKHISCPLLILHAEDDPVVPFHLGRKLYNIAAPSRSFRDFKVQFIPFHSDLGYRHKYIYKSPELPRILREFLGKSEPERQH
Protocol: as §2, §3

[1] = 20 μM, mouse brain (mem) proteome

T1 sequence (P97823 whole entry): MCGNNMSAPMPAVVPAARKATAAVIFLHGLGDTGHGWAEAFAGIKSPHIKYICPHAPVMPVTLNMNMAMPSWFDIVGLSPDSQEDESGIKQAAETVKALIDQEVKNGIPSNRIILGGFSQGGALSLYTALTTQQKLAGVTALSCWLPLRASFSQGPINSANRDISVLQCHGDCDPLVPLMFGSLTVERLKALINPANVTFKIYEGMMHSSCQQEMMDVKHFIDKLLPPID
T2 sequence (Q9WTL7 whole entry): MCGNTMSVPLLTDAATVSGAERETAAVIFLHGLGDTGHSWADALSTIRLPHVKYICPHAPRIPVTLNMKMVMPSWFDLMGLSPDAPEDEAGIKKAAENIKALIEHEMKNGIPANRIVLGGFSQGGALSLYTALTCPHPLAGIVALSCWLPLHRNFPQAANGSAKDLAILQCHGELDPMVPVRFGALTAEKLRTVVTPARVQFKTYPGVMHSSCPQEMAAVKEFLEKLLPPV

ABHD3 in vitro enzyme activity, % @ 10 μM (ABHD3) [% @]	ABHD12 in vitro enzyme activity, % @ 10 μM (ABHD12) [% @]	LYPLA1 in vitro enzyme activity, % @ 10 μM (LYPLA1; mouse brain (mem) proteome) [% @]	LYPLA2 in vitro enzyme activity, % @ 10 μM (LYPLA2; mouse brain (mem) proteome) [% @]	SMILES	further results
0	0	–	–	O=C(ON1C(=O)[C@@H]2CN(C(=O)N3CCOCC3)CCN2C1=O)N1CCC(CCc2ccc(Cl)cc2)CC1 [Compound 50, (S)-7-(morpholine-4-carbonyl)-1,3-dioxohexahydroimidazo[1,5-a]pyrazin-2(3H)-yl 4-(4-chloro-phenethyl)piperidine-1-carboxylate]	LYPLA1 in vitro enzyme activity, % @ 1 μM (LYPLA1; mouse brain (mem) proteome): 100% @; LYPLA2 in vitro enzyme activity, % @ 1 μM (LYPLA2; mouse brain (mem) proteome): 100% @
–	–	–	–	O=C(ON1C(=O)C2CN(Cc3ccc(Oc4ccccc4)cc3)CCN2C1=O)N1CCC(c2ccccc2)CC1 (centres unmarked) [Compound 38, 1,3-dioxo-7-(4-phenoxybenzyl)hexahydroimidazo[1,5-a]pyrazin-2(3H)-yl 4-phenylpiperidine-1-carboxylate]	LYPLA1 in vitro enzyme activity, % @ 20 μM (LYPLA1; [1]): 0% @; LYPLA2 in vitro enzyme activity, % @ 20 μM (LYPLA2; [1]): 0% @
0	0	0	0	COc1ccc(N2CCN(C(=O)ON3C(=O)C4CN(CC5CCN(Cc6ccccc6)CC5)CCN4C3=O)CC2)cc1 (centres unmarked) [Compound 52, 7-((1-benzylpiperidin-4-yl)methyl)-1,3-dioxo-hexahydroimidazo[1,5-a]pyrazin-2(3H)-yl 4-(4-methoxyphenyl)piperazine-1-carboxylate]	–
0	0	100	100	O=C(ON1C(=O)[C@@H]2CN(C(=O)N3CCOCC3)CCN2C1=O)N1CCN(CCc2ccc(Cl)cc2)CC1 [Compound 41, (S)-7-(morpholine-4-carbonyl)-1,3-dioxo-hexahydroimidazo[1,5-a]pyrazin-2(3H)-yl 4-(4-chlorophenethyl)piperazine-1-carboxylate]	–
0	0	0	0	C#CCOc1ccc(N2CCN(C(=O)ON3C(=O)[C@H]4CN(CC5CCN(Cc6ccccc6)CC5)CCN4C3=O)CC2)cc1 [Compound 47, (R)-7-((1-benzylpiperidin-4-yl)methyl)-1,3-dioxo-hexahydroimidazo[1,5-a]pyrazin-2(3H)-yl 4-(4-(prop-2-ynyloxy)phenyl)piperazine-1-carboxylate]	–
0	0	50	50	C#CCOc1ccc(N2CCN(C(=O)ON3C(=O)[C@@H]4CN(CC5CCN(Cc6ccccc6)CC5)CCN4C3=O)CC2)cc1 [Compound 46, (S)-7-((1-benzylpiperidin-4-yl)methyl)-1,3-dioxo-hexahydroimidazo[1,5-a]pyrazin-2(3H)-yl 4-(4-(prop-2-ynyloxy)phenyl)piperazine-1-carboxylate]	–
0	0	50	50	O=C(ON1C(=O)[C@@H]2CN(Cc3ccc(Br)cc3)CCN2C1=O)N1CCC(CCc2ccc(Cl)cc2)CC1 [Compound 40, (S)-7-(4-bromobenzyl)-1,3-dioxohexahydroimidazo[1,5-a]pyrazin-2(3H)-yl4-(4-chlorophenethyl)piperidine-1-carboxylate]	–
75	0	0	0	C#CCOc1ccc(N2CCN(C(=O)ON3C(=O)[C@H]4CN(Cc5ccc(Oc6ccccc6)cc5)CCN4C3=O)CC2)cc1 [Compound 45, (R)-1,3-dioxo-7-(4-phenoxybenzyl)-hexahydroimidazo[1,5-a]pyrazin-2(3H)-yl 4-(4-(prop-2-ynyloxy)phenyl)piperazine-1-carboxylate]	–
0	0	50	100	COc1ccc(N2CCN(C(=O)ON3C(=O)[C@@H]4CN(CC5CCN(Cc6ccccc6)CC5)CCN4C3=O)CC2)cc1 [Compound 42, (S)-7-((1-benzylpiperidin-4-yl)methyl)-1,3-dioxo-hexahydroimidazo[1,5-a]pyrazin-2(3H)-yl 4-(4-methoxyphenyl)piperazine-1-carboxylate]	–
–	–	–	–	O=C(ON1C(=O)C2CN(C(=O)N3CCOCC3)CCN2C1=O)N1CCC(CCc2ccc(Cl)cc2)CC1 (centres unmarked) [Compound 1, 7-(morpholine-4-carbonyl)-1,3-dioxohexahydroimidazo[1,5-a]pyrazin-2(3H)-yl 4-(4-chloro-phenethyl)piperidine-1-carboxylate]	inhibition at 1 µM (LYPLA1; 1 μM compound, 30 min, one replicate, read-out: LYPLA1 % INH 1 μM): 100%; inhibition at 10 µM (LYPLA1; 10 μM compound, 30 min, one replicate, read-out: LYPLA1 % INH 10 μM): 100%; inhibition at 100 µM (LYPLA1; 100 μM compound, 30 min, one replicate, read-out: LYPLA1 % INH 100 μM): 100%; inhibition at 1 µM (LYPLA2; 1 μM compound, 30 min, one replicate, read-out: LYPLA2 % INH 1 μM): 100%; inhibition at 10 µM (LYPLA2; 10 μM compound, 30 min, one replicate, read-out: LYPLA2 % INH 10 μM): 100%; inhibition at 100 µM (LYPLA2; 100 μM compound, 30 min, one replicate, read-out: LYPLA2 % INH 100 μM): 100%
0	0	–	–	O=C(ON1C(=O)[C@H]2CN(C(=O)N3CCOCC3)CCN2C1=O)N1CCC(CCc2ccc(Cl)cc2)CC1 [Compound 51, (R)-7-(morpholine-4-carbonyl)-1,3-dioxohexahydroimidazo[1,5-a]pyrazin-2(3H)-yl 4-(4-chloro-phenethyl)piperidine-1-carboxylate]	LYPLA1 in vitro enzyme activity, % @ 1 μM (LYPLA1; mouse brain (mem) proteome): 100% @; LYPLA2 in vitro enzyme activity, % @ 1 μM (LYPLA2; mouse brain (mem) proteome): 100% @
0	50	–	–	C#Cc1ccc(CCC2CCN(C(=O)ON3C(=O)[C@@H]4CN(C(=O)N5CCOCC5)CCN4C3=O)CC2)cc1 [Compound 48, (S)-7-(morpholine-4-carbonyl)-1,3-dioxo-hexahydroimidazo[1,5-a]pyrazin-2(3H)-yl 4-(4-ethynylphenethyl)piperidine-1-carboxylate]	LYPLA1 in vitro enzyme activity, % @ 1 μM (LYPLA1; mouse brain (mem) proteome): 75% @; LYPLA2 in vitro enzyme activity, % @ 1 μM (LYPLA2; mouse brain (mem) proteome): 75% @
0	0	0	0	COc1ccc(N2CCN(C(=O)ON3C(=O)[C@H]4CN(CC5CCN(Cc6ccccc6)CC5)CCN4C3=O)CC2)cc1 [Compound 43, (R)-7-((1-benzylpiperidin-4-yl)methyl)-1,3-dioxo-hexahydroimidazo[1,5-a]pyrazin-2(3H)-yl 4-(4-methoxyphenyl)piperazine-1-carboxylate]	–
0	50	–	–	C#Cc1ccc(CCC2CCN(C(=O)ON3C(=O)C4CN(C(=O)N5CCOCC5)CCN4C3=O)CC2)cc1 (centres unmarked) [Compound 53, 7-(morpholine-4-carbonyl)-1,3-dioxo-hexahydroimidazo[1,5-a]pyrazin-2(3H)-yl 4-(4-ethynylphenethyl)piperidine-1-carboxylate]	LYPLA1 in vitro enzyme activity, % @ 1 μM (LYPLA1; mouse brain (mem) proteome): 75% @; LYPLA2 in vitro enzyme activity, % @ 1 μM (LYPLA2; mouse brain (mem) proteome): 75% @
